Experimental findings from PMC12067145 (ACS Medicinal Chemistry Letters, 2025) are described below.

The nature of data set [1]: Plasma protein binding (human). It is filed as in vitro ADME. Particulars: pH 7.4, read-out: PPB human (converted). The procedure:
0.3% DMSO - ΔRatio of 1 µM control compound)x100
In vitro Plasma protein binding and Brain homogenate binding: Determination of fraction unbound (f u) in plasma was conducted in vitro via equilibrium dialysis using HTDialysis (HTD) membrane plates. The top half of the plate was filled with 100 uL of Dubelco’s Phosphate Buffered Saline, pH 7.4 (DPBS). Compounds were diluted into plasma from each species (5 µM final concentration), which was aliquoted in triplicate to the ‘bottom half’ of the prepared HTD plate wells. The HTD plate was sealed and incubated for 6 hours at 37 °C. Following incubation, each well (both top and bottom halves) were transferred (20 µL) to the corresponding wells of a 96-shallow-well (V-bottom) plate. The daughter plates were then matrix-matched (DPBS side wells received equal volume of plasma, and plasma side wells received equal volume of DPBS), and extraction solution (120 µL; acetonitrile containing 50 nM carbamazepine as IS) was added to all wells of both daughter plates to precipitate protein and extract test article. The plates were then sealed and centrifuged (3500 rcf) for 10 minutes at ambient temperature. Supernatant (60 µL) from each well of the daughter plates was then transferred to the corresponding wells of new daughter plates (96-shallow-well, V bottom) containing water (Milli-Q, 60 µL/well), and the plates were sealed in preparation for LC-MS/MS analysis (see LC-MS/MS analysis method below).
The unbound fraction (f u) was calculated following the equation below, and mean values for each species were calculated from 3 replicates. A similar approach was used to determine the degree of brain homogenate binding, which employed the same methodology and procedure with the following modifications: 1) a final compound concentration of 1 μM was used, 2) naïve rat brains were homogenized in DPBS (1:3 composition of brain: DPBS, w/w) using a Mini-Bead Beater™ machine in order to obtain brain homogenate, which was then treated in the same manner as the plasma samples in the previously described plasma protein binding assay. Fraction unbound for both plasma and brain samples was determined using Equation 4.

Data set [2] in a line: Rat IV:PBL PK cassette study / in vivo rat clearance. Particulars: male, Sprague-Dawley, 0.2 mg/kg.
The test system of another data set is male CD-1 mice. Put plainly: MK-801 challenged novel object recognition (NOR) task. Particulars: IP, 3.5 h prior to MK-801 (0.2 mg/kg IP). It counts as in vivo, mouse.
Another data set deals with HNC4 (Homo sapiens, UniProt Q9Y3Q4). Briefly: Cardiac ion channel MPC selectivity panel. It is filed as cell-based.
Another data set addresses Kir2.1 (Homo sapiens, UniProt P63252). Briefly: Cardiac ion channel MPC selectivity panel. It is filed as cell-based.
A further data set has as its target Nav1.5 (Homo sapiens, UniProt Q14524). Put plainly: Cardiac ion channel MPC selectivity panel. It counts as cell-based.
For another data set, the target named is hERG (Homo sapiens, UniProt Q12809). Briefly: Cardiac ion channel MPC selectivity panel. It counts as cell-based.
Chain of hERG (Q12809 whole entry): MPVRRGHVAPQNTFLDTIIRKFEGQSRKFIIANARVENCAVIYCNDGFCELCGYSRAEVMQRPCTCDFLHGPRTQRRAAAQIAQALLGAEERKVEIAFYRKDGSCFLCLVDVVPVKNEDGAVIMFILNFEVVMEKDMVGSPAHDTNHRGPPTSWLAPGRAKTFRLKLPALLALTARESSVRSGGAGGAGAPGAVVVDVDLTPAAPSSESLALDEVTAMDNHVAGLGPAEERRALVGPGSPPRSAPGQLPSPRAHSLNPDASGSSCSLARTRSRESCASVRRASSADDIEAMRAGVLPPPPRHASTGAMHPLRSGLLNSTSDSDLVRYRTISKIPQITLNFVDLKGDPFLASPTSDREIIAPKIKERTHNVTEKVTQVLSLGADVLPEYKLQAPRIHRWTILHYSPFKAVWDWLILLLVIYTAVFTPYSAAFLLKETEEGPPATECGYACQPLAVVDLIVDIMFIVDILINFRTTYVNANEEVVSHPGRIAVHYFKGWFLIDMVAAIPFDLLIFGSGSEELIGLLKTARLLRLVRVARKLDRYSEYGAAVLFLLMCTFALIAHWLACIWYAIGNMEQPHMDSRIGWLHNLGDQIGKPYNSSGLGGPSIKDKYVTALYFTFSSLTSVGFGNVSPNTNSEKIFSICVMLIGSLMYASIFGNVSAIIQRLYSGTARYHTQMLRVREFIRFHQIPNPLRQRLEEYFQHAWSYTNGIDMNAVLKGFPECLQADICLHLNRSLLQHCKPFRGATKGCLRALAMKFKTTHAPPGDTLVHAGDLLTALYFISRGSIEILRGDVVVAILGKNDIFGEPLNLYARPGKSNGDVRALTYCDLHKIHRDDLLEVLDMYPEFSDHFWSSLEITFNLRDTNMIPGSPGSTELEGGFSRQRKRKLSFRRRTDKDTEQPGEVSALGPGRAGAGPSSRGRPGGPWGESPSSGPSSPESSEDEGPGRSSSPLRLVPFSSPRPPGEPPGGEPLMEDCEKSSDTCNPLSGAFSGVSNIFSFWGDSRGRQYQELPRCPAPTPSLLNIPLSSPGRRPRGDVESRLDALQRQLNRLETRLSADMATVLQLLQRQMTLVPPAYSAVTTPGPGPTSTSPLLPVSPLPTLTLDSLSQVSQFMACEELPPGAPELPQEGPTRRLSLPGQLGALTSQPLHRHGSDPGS
In a further data set the target is Kir2.2 (Homo sapiens, UniProt Q14500). Briefly: Cardiac ion channel MPC selectivity panel. It is filed as cell-based.
The next data set has as its target T1, Adenosine A3 (Homo sapiens, UniProt P0DMS8).
T1 construct: Eurofins
Put plainly: Eurofins lead profiling screen (radioligand binding).

The next data set deals with Sodium Channel, Site 2. The description is as above. More on the design: species or system Rat.
The next data set has as its target Adenosine A1 (Homo sapiens, UniProt P30542). The description is as above.
The target in another data set is Adrenergic α1D (Homo sapiens, UniProt P25100). The data set is described as above.
The next data set deals with Adrenergic α2A (Homo sapiens, UniProt P08913). Described as above.
In the next data set the target is Adrenergic β2 (Homo sapiens, UniProt P07550). Described as above.
Chain of Adrenergic β2 (P07550 whole entry): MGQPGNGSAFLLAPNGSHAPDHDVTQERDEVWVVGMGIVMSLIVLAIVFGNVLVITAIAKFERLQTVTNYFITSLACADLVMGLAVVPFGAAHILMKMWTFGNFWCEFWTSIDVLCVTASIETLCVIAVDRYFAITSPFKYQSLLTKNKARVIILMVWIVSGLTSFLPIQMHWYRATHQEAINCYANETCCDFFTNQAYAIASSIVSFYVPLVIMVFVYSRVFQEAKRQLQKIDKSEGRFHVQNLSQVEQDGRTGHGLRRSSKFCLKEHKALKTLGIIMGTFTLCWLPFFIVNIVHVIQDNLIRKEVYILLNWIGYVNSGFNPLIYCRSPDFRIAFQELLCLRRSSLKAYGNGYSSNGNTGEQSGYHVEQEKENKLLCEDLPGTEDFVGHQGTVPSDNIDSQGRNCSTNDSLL
In data set [3] the target is Calcium Channel L-Type, Benzothiazepine (Rattus norvegicus, UniProt P22002). The description is as above.
A further data set has as its target Calcium Channel N-Type (Rattus norvegicus, UniProt Q02294). The data set is described as above.
A further data set addresses Cannabinoid CB1 (Homo sapiens, UniProt P21554). Described as above.
The next data set concerns the target Dopamine D1 (Homo sapiens, UniProt P21728). The description is as above.
Another data set addresses Dopamine D3 (Homo sapiens, UniProt P35462). Described as above.
A further data set deals with Endothelin ETA (Homo sapiens, UniProt P25101). Described as above.
Chain of Endothelin ETA (P25101 21-427): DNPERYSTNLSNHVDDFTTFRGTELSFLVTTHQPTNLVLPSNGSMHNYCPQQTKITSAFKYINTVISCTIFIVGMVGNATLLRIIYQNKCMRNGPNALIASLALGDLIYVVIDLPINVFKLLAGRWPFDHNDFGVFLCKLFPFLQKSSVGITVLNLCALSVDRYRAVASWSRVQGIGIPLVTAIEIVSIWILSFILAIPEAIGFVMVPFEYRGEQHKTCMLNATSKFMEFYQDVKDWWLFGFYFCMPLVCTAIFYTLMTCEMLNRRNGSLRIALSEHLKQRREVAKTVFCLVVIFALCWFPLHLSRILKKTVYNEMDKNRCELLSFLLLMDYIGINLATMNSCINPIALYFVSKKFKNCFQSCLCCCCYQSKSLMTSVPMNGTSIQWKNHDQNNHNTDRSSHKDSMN
For data set [4], the system named is GABAA, Flunitrazepam, Central. Described as above. More on the design: species or system Rat.
For another data set, the system named is Glutamate, Kainate. Described as above. Also on record: species or system Rat.
Another data set concerns Glutamate, NMDA, Agonism. The data set is described as above. More on the design: species or system Rat.
Data set [5] addresses Leukotriene, Cysteinyl CysLT1 (Homo sapiens, UniProt Q9Y271). The description is as above.
The next data set addresses Neuropeptide Y Y2 (Homo sapiens, UniProt P49146). The description is as above.
For data set [6], the target named is Nicotinic Acetylcholine α1, Bungarotoxin (Homo sapiens, UniProt P02708+P07510+Q07001). Briefly: biochemical. It is filed as binding. Conditions: read-out: % Inhibition at 10 µM.
Another data set addresses Opiate δ1 (OP1, DOP) (Homo sapiens, UniProt P41143). Briefly: Eurofins lead profiling screen (radioligand binding).
The target of another data set is Prostanoid EP4 (Homo sapiens, UniProt P35408). Described as above.
Chain of Prostanoid EP4 (P35408 whole entry): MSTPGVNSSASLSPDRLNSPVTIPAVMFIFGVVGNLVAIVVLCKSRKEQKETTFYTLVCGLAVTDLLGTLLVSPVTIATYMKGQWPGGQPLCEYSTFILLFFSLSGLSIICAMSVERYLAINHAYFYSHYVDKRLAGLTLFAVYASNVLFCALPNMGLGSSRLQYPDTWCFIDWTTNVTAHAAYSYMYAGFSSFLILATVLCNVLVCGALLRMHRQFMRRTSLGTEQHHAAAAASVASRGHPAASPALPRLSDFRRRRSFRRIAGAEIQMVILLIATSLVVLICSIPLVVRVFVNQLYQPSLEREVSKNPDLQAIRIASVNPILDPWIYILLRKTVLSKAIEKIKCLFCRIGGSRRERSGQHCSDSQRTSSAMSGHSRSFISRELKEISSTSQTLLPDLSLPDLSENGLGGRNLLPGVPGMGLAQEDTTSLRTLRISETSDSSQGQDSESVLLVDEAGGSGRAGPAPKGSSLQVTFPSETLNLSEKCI
A further data set deals with Purinergic P2X. Described as above. Also on record: species or system Rat.
In the next data set the test system is Rolipram. The data set is described as above. Also on record: species or system Rat.
A further data set has as its target Tachykinin NK1 (Homo sapiens, UniProt P25103). The data set is described as above.
For data set [7], the target named is Transporter, Dopamine (DAT) (Homo sapiens, UniProt Q01959). Described as above.

T1 sequence (P0DMS8 whole entry): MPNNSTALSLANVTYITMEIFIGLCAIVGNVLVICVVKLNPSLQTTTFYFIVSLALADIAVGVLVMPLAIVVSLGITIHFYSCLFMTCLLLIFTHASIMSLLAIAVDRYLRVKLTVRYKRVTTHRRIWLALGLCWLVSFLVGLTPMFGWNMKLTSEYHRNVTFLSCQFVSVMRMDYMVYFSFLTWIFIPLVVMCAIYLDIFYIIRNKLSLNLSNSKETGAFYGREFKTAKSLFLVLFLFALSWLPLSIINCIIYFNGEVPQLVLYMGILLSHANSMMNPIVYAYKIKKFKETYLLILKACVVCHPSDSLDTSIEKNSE
Chain of Opiate δ1 (OP1, DOP) (P41143 whole entry): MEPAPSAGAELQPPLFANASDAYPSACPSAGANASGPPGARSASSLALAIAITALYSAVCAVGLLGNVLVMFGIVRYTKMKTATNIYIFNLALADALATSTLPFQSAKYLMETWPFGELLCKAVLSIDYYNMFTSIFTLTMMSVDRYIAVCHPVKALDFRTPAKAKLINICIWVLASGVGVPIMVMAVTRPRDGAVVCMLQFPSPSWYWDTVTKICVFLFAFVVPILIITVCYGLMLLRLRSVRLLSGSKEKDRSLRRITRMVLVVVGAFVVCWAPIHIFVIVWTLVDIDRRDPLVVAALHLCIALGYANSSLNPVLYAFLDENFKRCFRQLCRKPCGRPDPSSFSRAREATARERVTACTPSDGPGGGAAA
Chain of Dopamine D3 (P35462 whole entry): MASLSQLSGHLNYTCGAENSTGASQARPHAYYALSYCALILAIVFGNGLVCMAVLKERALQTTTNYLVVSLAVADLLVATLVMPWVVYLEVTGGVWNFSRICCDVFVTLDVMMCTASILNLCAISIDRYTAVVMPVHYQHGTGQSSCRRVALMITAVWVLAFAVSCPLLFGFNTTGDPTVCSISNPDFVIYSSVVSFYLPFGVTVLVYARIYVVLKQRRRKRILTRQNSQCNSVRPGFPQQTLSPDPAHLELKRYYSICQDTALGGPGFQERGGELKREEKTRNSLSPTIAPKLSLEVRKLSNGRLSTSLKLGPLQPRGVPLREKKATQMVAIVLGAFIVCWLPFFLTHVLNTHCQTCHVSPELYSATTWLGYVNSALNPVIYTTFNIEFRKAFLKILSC
Chain of Cannabinoid CB1 (P21554 whole entry): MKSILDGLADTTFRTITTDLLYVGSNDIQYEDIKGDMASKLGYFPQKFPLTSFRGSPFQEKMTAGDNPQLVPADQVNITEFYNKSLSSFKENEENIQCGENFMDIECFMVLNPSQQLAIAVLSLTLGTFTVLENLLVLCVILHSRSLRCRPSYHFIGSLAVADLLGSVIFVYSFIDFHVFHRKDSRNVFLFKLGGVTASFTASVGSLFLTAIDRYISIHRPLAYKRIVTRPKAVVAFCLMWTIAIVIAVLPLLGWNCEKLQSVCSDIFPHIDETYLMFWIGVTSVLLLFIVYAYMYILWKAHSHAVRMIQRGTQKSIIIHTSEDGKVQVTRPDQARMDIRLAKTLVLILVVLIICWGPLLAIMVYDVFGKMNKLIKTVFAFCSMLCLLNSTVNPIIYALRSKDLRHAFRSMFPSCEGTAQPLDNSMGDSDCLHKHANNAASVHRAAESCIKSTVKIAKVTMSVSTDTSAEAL
Chain of Leukotriene, Cysteinyl CysLT1 (Q9Y271 whole entry): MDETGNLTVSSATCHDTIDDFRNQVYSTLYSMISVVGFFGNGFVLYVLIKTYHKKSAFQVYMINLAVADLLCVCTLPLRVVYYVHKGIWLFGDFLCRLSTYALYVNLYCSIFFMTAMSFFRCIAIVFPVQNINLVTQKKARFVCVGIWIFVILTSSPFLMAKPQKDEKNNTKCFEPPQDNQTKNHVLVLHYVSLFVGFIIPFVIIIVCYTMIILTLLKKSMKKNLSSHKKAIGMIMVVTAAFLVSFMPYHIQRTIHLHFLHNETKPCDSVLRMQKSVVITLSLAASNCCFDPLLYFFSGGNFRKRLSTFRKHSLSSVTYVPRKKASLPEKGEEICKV
Chain of Dopamine D1 (P21728 whole entry): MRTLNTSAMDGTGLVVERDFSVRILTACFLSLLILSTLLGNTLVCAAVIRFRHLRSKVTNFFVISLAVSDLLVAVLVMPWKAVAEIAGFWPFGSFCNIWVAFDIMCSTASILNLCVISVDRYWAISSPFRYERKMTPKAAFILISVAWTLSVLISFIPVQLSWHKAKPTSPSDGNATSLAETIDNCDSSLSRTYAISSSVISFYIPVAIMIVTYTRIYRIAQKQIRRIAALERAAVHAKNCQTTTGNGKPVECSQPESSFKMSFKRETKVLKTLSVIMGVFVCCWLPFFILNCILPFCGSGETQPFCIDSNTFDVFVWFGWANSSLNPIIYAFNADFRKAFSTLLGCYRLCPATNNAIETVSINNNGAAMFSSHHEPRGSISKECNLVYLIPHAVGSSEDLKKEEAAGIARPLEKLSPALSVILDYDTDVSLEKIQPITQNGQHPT
Description for male CD-1 mice: A plastic chamber (W 345×L 400×H 180 mm) was used for the novel object recognition test. The light intensity in the test room was maintained at approximately 20 lux. The novel object recognition test was conducted over two days. On the first day, mice were placed in the chamber without any objects and allowed to explore freely for 10 minutes to acclimate to the experimental environment. […] Thirty minutes after the MK-801 challenge, the acquisition trial

Turning to `Cc1cc(C#Cc2ccc(F)cc2)cnc1NC(=O)c1cc(NC(=O)OC(C)(C)C)ccc1Cl` [Compound 14c], the fraction unbound at 6 h, 5 µM in data set [1] is 0.006. In addition, the clearance at 24 h in data set [2] (iv, in vivo rat plasma clearance, read-out: rat CLp) worked out at 21.2 mL/min/kg. In [2] (plasma, rat IV:PBL PK cassette), this molecule showed a half-life at 24 h of 6.78 h. Besides, the Vd at 24 h in data set [2] (plasma, rat IV:PBL PK cassette, read-out: volume of distribution) came out at 6.7 L/kg. The “minimum effective dose (MED)” value in the data set with male CD-1 mice amounted to 10 mg/kg. For the same molecule, the “% at 10 μM, HNC4” value at HNC4 is on record as less than 50%. Further, the “% at 10 μM, Kir2.1” value at Kir2.1 is reported as less than 50%. Besides, at Nav1.5, the “% at 10 μM, Nav1.5” value is recorded as less than 50%. Moreover, on hERG, the “% at 10 μM, hERG” value is given as less than 50%. In addition, the “% at 10 μM, Kir2.2” value at Kir2.2 came to 52%. The Ki was 0.48 µM on Adenosine A3 and 0.65 µM at Sodium Channel, Site 2.

Consider `O=C(NCc1ccc(OC(F)(F)F)cc1F)c1ccc2ncnn2c1` [ONO-2920632], for which the inhibition at 10 µM at Adenosine A1 stood at 2%; on Adenosine A3, 84%; at Adrenergic α1D, 26%; at Adrenergic α2A it was 36%; on Adrenergic β2, 4%; in data set [3], 56%. The inhibition at 10 µM on Calcium Channel N-Type is 4%; at Cannabinoid CB1 it was -23%; at Dopamine D1 it was 8%; at Dopamine D3, 12%; at Endothelin ETA, -11%; in data set [5], -7%. Also, the inhibition at 10 µM was 6% on Neuropeptide Y Y2; -4% in data set [6]; -8% on Opiate δ1 (OP1, DOP); 19% at Prostanoid EP4; 13% at Tachykinin NK1; 23% in data set [7]. Besides, the “% Inhibition at 10 µM” value is reported as -9% in [4]; 3% in the data set on Glutamate, Kainate; 2% in the data set on Glutamate, NMDA, Agonism; 1% in the data set with Purinergic P2X; 5% in the data set on Rolipram; 84% with Sodium Channel, Site 2 (10 µM).

A word on the half-life: it is the time in which the quantity being followed falls by half. As usually defined, the Ki is the dissociation constant of the complex between target and ligand, obtained from inhibition or displacement. Higher therefore signals a looser hold on the target. By inhibition is commonly meant the change of the read-out against control, counted positive when it falls. The % Inhibition is the drop in the measured response relative to a control, in per cent.
